Assays:
Assay type in all cases: biochemical
Conditions in all cases: BQC 10 μM, λex 500 nm, λem 595 nm, 4 h, 37° C., pH 7.6, baseline subtracted
DT Diaphorase [1] = molecular target: T1, DT Diaphorase (Homo sapiens, UniProt P15559); assay: Oxygen-insensitive DTD-coupling enzyme assay for ethanol determination (alcohol dehydrogenase, NAD+, DT Diaphorase)
Protocol: (§1) All the fluorimetric measurements carried out with an excitation wavelength of λex=500 nm and an emission wavelength of λem=595 nm. The solutions containing BQC (10 μM), DTD (1 unit), and the corresponding dehydrogenase (1 to 10 unit), NAD^+ (10 μM), and ethanol, 3-hydroxybutrate or glucose-6-phosphate (0 to 10 μM) in Tris-HCl buffer with a final volume of 1 mL were incubated for 4 h at 37° C. The fluorimetric intensity of each solution after subtracting the baseline intensity ([analytes]=0) was plotted versus the analytes concentration.
All different ethanol concentration analytes are tabulated in the table below, and the environment of assay is maintained in pH 7.6 at 37° C.

DT Diaphorase [2] = molecular target: T1, DT Diaphorase; assay: Oxygen-insensitive DTD-coupling enzyme assay for 3-hydroxybutyrate determination (3-hydroxybutyrate dehydrogenase, NAD+, DT Diaphorase)
Protocol: as §1
All different 3-hydroxybutyrate concentration analytes are tabulated in the table below, and the environment of assay is maintained in pH 7.6 at 37° C.

DT Diaphorase [3] = molecular target: T1, DT Diaphorase; assay: Oxygen-insensitive DTD-coupling enzyme assay for glucose-6-phosphate determination (glucose-6-phosphate dehydrogenase, phosphoglucomutase, NAD+, DT Diaphorase)
Protocol: as §1
All different glucose-6-phophate concentration analytes are tabulated in the table below, and the environment of assay is maintained in pH 7.6 at 37° C.

T1 sequence (P15559 whole entry, species assumed): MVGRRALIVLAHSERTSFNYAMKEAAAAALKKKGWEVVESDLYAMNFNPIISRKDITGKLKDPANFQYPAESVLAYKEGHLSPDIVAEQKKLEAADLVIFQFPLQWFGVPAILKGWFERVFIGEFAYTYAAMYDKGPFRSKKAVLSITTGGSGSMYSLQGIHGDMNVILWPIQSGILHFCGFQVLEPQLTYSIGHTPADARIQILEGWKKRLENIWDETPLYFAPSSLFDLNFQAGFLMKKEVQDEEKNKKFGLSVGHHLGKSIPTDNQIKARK

Compound `CC1=C(C)C(=O)C(C(C)(C)CC(=O)N(C)CCN(C)C(=O)Oc2ccc3c(C#N)c(-c4nc5ccccc5s4)c(=O)oc3c2)=C(C)C1=O` [BQC] has a relative fluorescence intensity (DT Diaphorase [1]; ethanol 0.2 μM) of 10.79, a relative fluorescence intensity (DT Diaphorase [1]; ethanol 0.6 μM) of 26.18 and a relative fluorescence intensity (DT Diaphorase [1]; ethanol 0.8 μM) of 35.23. It also gave a relative fluorescence intensity (DT Diaphorase [1]; ethanol 1 μM) of 39.42, a relative fluorescence intensity (DT Diaphorase [1]; ethanol 2 μM) of 77.06 and a relative fluorescence intensity (DT Diaphorase [2]; 3-hydroxybutyrate 1 μM) of 16.17. It also gave a relative fluorescence intensity (DT Diaphorase [2]; 3-hydroxybutyrate 2 μM) of 47.59, a relative fluorescence intensity (DT Diaphorase [2]; 3-hydroxybutyrate 4 μM) of 83.74 and a relative fluorescence intensity (DT Diaphorase [2]; 3-hydroxybutyrate 6 μM) of 126.26. It also gave a relative fluorescence intensity (DT Diaphorase [2]; 3-hydroxybutyrate 8 μM) of 144.93, a relative fluorescence intensity (DT Diaphorase [2]; 3-hydroxybutyrate 10 μM) of 198.56 and a relative fluorescence intensity (DT Diaphorase [3]; glucose-6-phosphate 1 μM) of 17.02. It also gave a relative fluorescence intensity (DT Diaphorase [3]; glucose-6-phosphate 2 μM) of 36.84, a relative fluorescence intensity (DT Diaphorase [3]; glucose-6-phosphate 4 μM) of 76.41 and a relative fluorescence intensity (DT Diaphorase [3]; glucose-6-phosphate 6 μM) of 144.45. It also gave a relative fluorescence intensity (DT Diaphorase [3]; glucose-6-phosphate 8 μM) of 175.2, a relative fluorescence intensity (DT Diaphorase [3]; glucose-6-phosphate 9 μM) of 190.32 and a relative fluorescence intensity (DT Diaphorase [3]; glucose-6-phosphate 10 μM) of 207.94.
